Here are results for ten molecules from patent US20240018158A1, “BRM TARGETING COMPOUNDS AND ASSOCIATED METHODS OF USE” (Prelude Therapeutics Incorporated, priority 2020, published 2024).

For the test, the target named is SMARCA2 (Homo sapiens (Human), UniProt P51531). Nature of the test: SMARCA2 HiBiT degradation assay in HEK293T cells. Type of test: cell-based. The note with it: 293T HiBiT assay, 24 h; for DC50: read-out: DC50 (SM2-293T) SMARCA2 degradation potency; for Dmax: HEK-293T, read-out: Dmax % (SM2-293T) maximum SMARCA2 degradation within the concentrations tested. The protocol: HiBiT peptide knock-in of SMARCA2 in LgBiT expressing HEK293T cells was performed by CRISPR-mediated tagging system as described Promega. The homozygous HiBiT knock-in on c-terminus SMARCA2 was confirmed by sanger sequence. SMARCA2-HiBiT knock-in Hela monoclonal cell (CS302366) and SMARCA4-HiBiT knock-in Hela monoclonal cell (CS3023226) were purchased from Promega. The heterozygous HiBiT-knock-in was confirmed by sanger sequence in both SMARCA2-HiBiT and SMARCA4-HiBiT monoclonal cells. Compounds were prepared in a low dead volume plate at 3-fold serial dilution, and then transferred 25 nL/well into a 384 well plate (Corning: #356661) by Agilent Bravo liquid dispenser. SMARCA2-HiBiT monoclonal HEK293T cells were added at 5,000/well/25 uL into the compound containing 384 well plate. After 24 h incubation, 25 uL/well of Nano-Glo HiBiT Lytic detection buffer (Promega: N3050) was added to the wells and incubate for 10 min on a shaker, centrifuged for 5 min, and then RLU was detected on a microplate reader (Envision, PerkinElmer). The RLU ratio values are normalized to percent inhibition as follows: % inhibition=((HC−LC)−(compound−LC))/(HC−LC))*100, where HC=high control=mean signal of DMSO only; LC=low control=mean signal of 100% inhibition of RLU by 1 μM PRT1001728. An 11-point dose response curve for each compound will be generated using normalized % inhibition to determine IC50 values based on the equation: Y=Bottom+((Top-Bottom)/(1+((IC50/X)^Slope))), where Y is the % inhibition in the presence of X inhibitor concentration; Top=the top plateau of the curve; Bottom=the bottom plateau of the curve; Slope=Hill coefficient; DC50=concentration of compound with 50% degradation in relation to top/high control. DC50 values were determined by using XLfit Model 205.
Sequence of SMARCA2 (P51531 whole entry): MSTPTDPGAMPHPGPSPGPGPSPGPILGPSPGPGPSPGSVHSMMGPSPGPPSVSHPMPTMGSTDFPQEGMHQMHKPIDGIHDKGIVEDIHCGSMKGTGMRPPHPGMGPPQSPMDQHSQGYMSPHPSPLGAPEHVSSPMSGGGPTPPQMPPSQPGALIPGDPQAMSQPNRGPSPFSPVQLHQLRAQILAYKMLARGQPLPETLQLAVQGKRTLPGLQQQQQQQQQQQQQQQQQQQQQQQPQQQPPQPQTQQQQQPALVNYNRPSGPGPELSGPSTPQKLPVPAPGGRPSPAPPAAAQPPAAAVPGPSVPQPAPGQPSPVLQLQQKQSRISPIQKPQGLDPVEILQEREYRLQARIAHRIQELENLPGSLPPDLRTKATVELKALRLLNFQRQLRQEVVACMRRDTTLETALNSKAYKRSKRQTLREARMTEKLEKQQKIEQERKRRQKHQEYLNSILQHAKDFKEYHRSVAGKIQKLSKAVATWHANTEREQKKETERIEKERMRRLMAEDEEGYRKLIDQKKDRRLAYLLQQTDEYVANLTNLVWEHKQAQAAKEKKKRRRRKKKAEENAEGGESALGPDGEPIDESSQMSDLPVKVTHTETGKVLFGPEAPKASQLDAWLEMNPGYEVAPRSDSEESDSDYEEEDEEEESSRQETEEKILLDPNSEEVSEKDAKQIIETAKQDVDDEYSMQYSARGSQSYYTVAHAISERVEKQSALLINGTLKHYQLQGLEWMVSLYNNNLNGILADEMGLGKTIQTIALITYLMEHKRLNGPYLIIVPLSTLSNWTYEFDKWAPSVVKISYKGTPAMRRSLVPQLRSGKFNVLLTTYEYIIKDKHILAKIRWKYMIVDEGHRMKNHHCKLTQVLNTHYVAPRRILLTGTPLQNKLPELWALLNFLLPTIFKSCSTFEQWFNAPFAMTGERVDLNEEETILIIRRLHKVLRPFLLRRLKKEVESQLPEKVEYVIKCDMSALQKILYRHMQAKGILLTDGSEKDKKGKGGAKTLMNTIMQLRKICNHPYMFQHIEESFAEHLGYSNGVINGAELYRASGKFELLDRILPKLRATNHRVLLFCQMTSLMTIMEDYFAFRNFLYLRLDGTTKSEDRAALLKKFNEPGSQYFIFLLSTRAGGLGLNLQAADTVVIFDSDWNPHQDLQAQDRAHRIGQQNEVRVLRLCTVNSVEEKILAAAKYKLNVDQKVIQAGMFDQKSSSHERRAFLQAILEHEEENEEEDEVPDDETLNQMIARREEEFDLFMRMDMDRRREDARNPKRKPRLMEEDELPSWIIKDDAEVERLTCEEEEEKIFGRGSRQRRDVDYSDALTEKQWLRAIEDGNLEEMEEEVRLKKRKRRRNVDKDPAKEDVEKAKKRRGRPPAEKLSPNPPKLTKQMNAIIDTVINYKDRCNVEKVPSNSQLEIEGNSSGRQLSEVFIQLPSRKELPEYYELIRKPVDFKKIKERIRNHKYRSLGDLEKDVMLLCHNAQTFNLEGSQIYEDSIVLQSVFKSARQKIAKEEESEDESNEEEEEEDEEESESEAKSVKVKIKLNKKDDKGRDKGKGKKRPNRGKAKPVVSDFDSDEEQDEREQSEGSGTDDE

Some results are limits rather than exact numbers.

For orientation: DC50 means the concentration giving 50% degradation. With `Cc1ncsc1-c1ccc([C@H](C)NC(=O)[C@@H]2C[C@@H](O)CN2C(=O)[C@@H](c2cc(CN3CCC(N4CCN5c6cc(-c7ccccc7O)nnc6NC[C@H]5C4)CC3)no2)C(C)C)cc1` [Example 39, (2S,4R)-4-hydroxy-1-((R)-2-(3-((4-((S)-2-(2-hydroxyphenyl)-5,6,6a,7,9,10-hexahydro-8H-pyrazino[1′,2′:4,5]pyrazino[2,3-c]pyridazin-8-yl)piperidin-1-yl)methyl)isoxazol-5-yl)-3-methylbutanoyl)-N-((S)-1-(4-(4-methylthiazol-5-yl)phenyl)ethyl)pyrrolidine-2-carboxamide], the DC50 was < 100 nM and the Dmax was > 75%.

Regarding `COc1cc(-c2scnc2C)ccc1[C@H](C)NC(=O)[C@@H]1C[C@@H](O)CN1C(=O)[C@@H](c1cc(OCCN2CCC(CN3CCN4c5cc(-c6ccccc6O)nnc5NC[C@H]4C3)CC2)no1)C(C)C` [Example 40, (2S,4R)-4-hydroxy-1-((R)-2-(3-(2-(4-(((S)-2-(2-hydroxyphenyl)-5,6,6a,7,9,10-hexahydro-8H-pyrazino[1′,2′:4,5]pyrazino[2,3-c]pyridazin-8-yl)methyl)piperidin-1-yl)ethoxy)isoxazol-5-yl)-3-methylbutanoyl)-N-((S)-1-(2-methoxy-4-(4-methylthiazol-5-yl)phenyl)ethyl)pyrrolidine-2-carboxamide], the DC50 is < 100 nM and the Dmax was > 75%.

Consider `Cc1ncsc1-c1ccc([C@H](C)NC(=O)[C@@H]2C[C@@H](O)CN2C(=O)[C@@H](c2cc(OCCN3CCC(N4CCC(N5CCN6c7cc(-c8ccccc8O)nnc7NC[C@H]6C5)CC4)CC3)no2)C(C)C)cc1` [Example 44, (2S,4R)-4-hydroxy-1-((R)-2-(3-(2-(4-((S)-2-(2-hydroxyphenyl)-5,6,6a,7,9,10-hexahydro-8H-pyrazino[1′,2′:4,5]pyrazino[2,3-c]pyridazin-8-yl)-[1,4′-bipiperidin]-1-yl)ethoxy)isoxazol-5-yl)-3-methylbutanoyl)-N-((S)-1-(4-(4-methylthiazol-5-yl)phenyl)ethyl)pyrrolidine-2-carboxamide], for which the DC50 is < 100 nM and the Dmax is > 75%.

Turning to `Cc1ncsc1-c1ccc([C@H](C)NC(=O)[C@@H]2C[C@@H](OC(=O)C(C)C)CN2C(=O)[C@@H](c2cc(OCCN3CCC(CN4CCN5c6cc(-c7ccccc7O)nnc6NC[C@H]5C4)CC3)no2)C(C)C)cc1` [Example 52, (3R,5S)-1-((R)-2-(3-(2-(4-(((S)-2-(2-hydroxyphenyl)-5,6,6a,7,9,10-hexahydro-8H-pyrazino[1′,2′:4,5]pyrazino[2,3-c]pyridazin-8-yl)methyl)piperidin-1-yl)ethoxy)isoxazol-5-yl)-3-methylbutanoyl)-5-(((S)-1-(4-(4-methylthiazol-5-yl)phenyl)ethyl)carbamoyl)pyrrolidin-3-yl isobutyrate], the DC50 was < 100 nM and the Dmax was > 75%.

In the case of `Cc1ncsc1-c1ccc([C@H](C)NC(=O)[C@@H]2C[C@@H](O)CN2C(=O)C(c2cc(COC(=O)N3CCC(N4CCN5c6cc(-c7ccccc7O)nnc6NC[C@H]5C4)CC3)no2)C(C)C)cc1` (stereo partly drawn) [Example 53, (5-(1-((2S,4R)-4-hydroxy-2-(((S)-1-(4-(4-methylthiazol-5-yl)phenyl)ethyl)carbamoyl)pyrrolidin-1-yl)-3-methyl-1-oxobutan-2-yl)isoxazol-3-yl)methyl 4-((S)-2-(2-hydroxyphenyl)-5,6,6a,7,9,10-hexahydro-8H-pyrazino[1′,2′:4,5]pyrazino[2,3-c]pyridazin-8-yl)piperidine-1-carboxylate], the DC50 is < 100 nM and the Dmax is > 75%.

Take `Cc1ncsc1-c1ccc([C@H](C)NC(=O)[C@@H]2C[C@@H](O)CN2C(=O)[C@@H](NC(=O)COCCN2CCN3c4cc(-c5ccccc5O)nnc4NCC3C2)C(C)(C)C)cc1` (stereo partly drawn) [Example 65, (2S,4R)-4-hydroxy-1-((2S)-2-(2-(2-(2-(2-hydroxyphenyl)-5,6,6a,7,9,10-hexahydro-8H-pyrazino[1′,2′:4,5]pyrazino[2,3-c]pyridazin-8-yl)ethoxy)acetamido)-3,3-dimethylbutanoyl)-N-((S)-1-(4-(4-methylthiazol-5-yl)phenyl)ethyl)pyrrolidine-2-carboxamide]: the DC50 was 100 to 1000 nM and the Dmax was > 75%.

For the molecule `Cc1ncsc1-c1ccc([C@H](C)NC(=O)[C@@H]2C[C@@H](O)CN2C(=O)[C@@H](NC(=O)CN2CC(N3CCN4c5cc(-c6ccccc6O)nnc5NCC4C3)C2)C(C)(C)C)cc1` (stereo partly drawn) [Example 66, (2S,4R)-4-hydroxy-1-((2S)-2-(2-(3-(2-(2-hydroxyphenyl)-5,6,6a,7,9,10-hexahydro-8H-pyrazino[1′,2′:4,5]pyrazino[2,3-c]pyridazin-8-yl)azetidin-1-yl)acetamido)-3,3-dimethylbutanoyl)-N-((S)-1-(4-(4-methylthiazol-5-yl)phenyl)ethyl)pyrrolidine-2-carboxamide], the DC50 fell in the range of 100 to 1000 nM and the Dmax is > 75%.

With `Cc1ncsc1-c1ccc([C@H](C)NC(=O)[C@@H]2C[C@@H](O)CN2C(=O)[C@@H](c2cc(OC(C)CN3CCCC(CN4CCN5c6cc(-c7ccccc7O)nnc6NC[C@H]5C4)CC3)no2)C(C)C)cc1` (stereo partly drawn) [Example 67, (2S,4R)-4-hydroxy-1-((2R)-2-(3-((1-(4-(((S)-2-(2-hydroxyphenyl)-5,6,6a,7,9,10-hexahydro-8H-pyrazino[1′,2′:4,5]pyrazino[2,3-c]pyridazin-8-yl)methyl)azepan-1-yl)propan-2-yl)oxy)isoxazol-5-yl)-3-methylbutanoyl)-N-((S)-1-(4-(4-methylthiazol-5-yl)phenyl)ethyl)pyrrolidine-2-carboxamide], the DC50 is < 100 nM and the Dmax was > 75%.

As for `Cc1ncsc1-c1ccc([C@H](C)NC(=O)[C@@H]2C[C@@H](O)CN2C(=O)[C@@H](c2cc(CCCN3CCN4c5cc(-c6ccccc6O)nnc5NCC4C3)no2)C(C)C)cc1` (stereo partly drawn) [Example 74, (2S,4R)-4-hydroxy-1-((2R)-2-(3-(3-(2-(2-hydroxyphenyl)-5,6,6a,7,9,10-hexahydro-8H-pyrazino[1′,2′:4,5]pyrazino[2,3-c]pyridazin-8-yl)propyl)isoxazol-5-yl)-3-methylbutanoyl)-N-((S)-1-(4-(4-methylthiazol-5-yl)phenyl)ethyl)pyrrolidine-2-carboxamide], the DC50 is < 100 nM and the Dmax was > 75%.

`Cc1ncsc1-c1ccc([C@H](C)NC(=O)[C@@H]2C[C@@H](O)CN2C(=O)C(c2cc(COc3cc(N4CCN5c6cc(-c7ccccc7O)nnc6NCC5C4)ccn3)no2)C(C)C)cc1` (stereo partly drawn) [Example 75, (2S,4R)-4-hydroxy-1-(2-(3-(((4-(2-(2-hydroxyphenyl)-5,6,6a,7,9,10-hexahydro-8H-pyrazino[1′,2′:4,5]pyrazino[2,3-c]pyridazin-8-yl)pyridin-2-yl)oxy)methyl)isoxazol-5-yl)-3-methylbutanoyl)N-((S)-1-(4-(4-methylthiazol-5-yl)phenyl)ethyl)pyrrolidine-2-carboxamide]: the DC50 was 100 to 1000 nM and the Dmax is > 75%.
